Results as given in ChEMBL document CHEMBL4311942, “Design of Trp-Rich Dodecapeptides with Broad-Spectrum Antimicrobial Potency and Membrane-Disruptive Mechanism” (J Med Chem, 2019).
≈ marks a conversion by molar mass, not a printed value. Where a SMILES comes first, the peptide text is derived from it.

Columns and labels:
Staphylococcus aureus [1] = experiment: Antibacterial activity against Staphylococcus aureus ATCC 25923 incubated for 18 to 24 hrs by broth microdilution method; format: functional
Staphylococcus aureus [2] = experiment: Antibacterial activity against Staphylococcus aureus ATCC 29213 incubated for 18 to 24 hrs by broth microdilution method; format: functional
Salmonella typhimurium = experiment: Antibacterial activity against Salmonella enterica serovar typhimurium C77-31 incubated for 18 to 24 hrs by broth microdilution method; format: functional, Salmonella enterica subsp. enterica serovar Typhimurium
Escherichia coli [3] = experiment: Antibacterial activity against Escherichia coli UB1005 incubated for 18 to 24 hrs by broth microdilution method; format: functional
Escherichia coli [4] = experiment: Antibacterial activity against Escherichia coli ATCC 25922 incubated for 18 to 24 hrs by broth microdilution method; format: functional
[5] = tested on: Staphylococcus epidermidis; experiment: Antibacterial activity against Staphylococcus epidermidis ATCC 12228 incubated for 18 to 24 hrs by broth microdilution method; format: functional
Erythrocyte = experiment: Haemolytic activity in human erythrocytes assessed as lowest concentration causing 5% hemolysis after 1 hr; format: ADME, cell-based
[6] = Therapeutic index, ratio of MHC for human RBC to geometric mean of peptide MIC for Escherichia coli ATCC 25922; format: toxicity; settings: pooled result: one value given for 6 cell lines, strains, targets or settings, read-out: TI
[7] = Cytotoxicity against mouse RAW264.7 cells assessed as cell survival at <= 32 uM after 24 hrs by MTT assay relative to control; format: cell-based; settings: RAW264.7 cells, up to 32 µM, read-out: Activity
Escherichia coli [8] = experiment: Antibacterial activity against Escherichia coli 20411 clinical isolate incubated for 18 to 24 hrs by broth microdilution method; format: functional
Acinetobacter baumannii [9] = experiment: Antibacterial activity against Acinetobacter baumannii AB1901 clinical isolate incubated for 18 to 24 hrs by broth microdilution method; format: functional
Acinetobacter baumannii [10] = experiment: Antibacterial activity against Acinetobacter baumannii AB1902 clinical isolate incubated for 18 to 24 hrs by broth microdilution method; format: functional
Pseudomonas aeruginosa = experiment: Antibacterial activity against Pseudomonas aeruginosa 25349 clinical isolate incubated for 18 to 24 hrs by broth microdilution method; format: functional
Staphylococcus aureus [11] = experiment: Antibacterial activity against Staphylococcus aureus 11011 incubated for 18 to 24 hrs by broth microdilution method; format: functional
[12] = Cytotoxicity against mouse RAW264.7 cells assessed as cell survival at < 32 uM after 24 hrs by MTT assay; format: cell-based; settings: read-out: Activity

MIC (Staphylococcus aureus [1]) [µM]	MIC (Staphylococcus aureus [2]) [µM]	MIC (Salmonella typhimurium) [µM]	MIC (Escherichia coli [3]) [µM]	MIC (Escherichia coli [4]) [µM]	MIC [5] [µM]	MIC (Escherichia coli [8]) [µM]	MIC (Acinetobacter baumannii [9]) [µM]	MIC (Acinetobacter baumannii [10]) [µM]	MIC (Pseudomonas aeruginosa) [µM]	MIC (Staphylococcus aureus [11]) [µM]	Compound	MHC (Erythrocyte) [µM]	selectivity ratio [6]	viability at 24 h [7] [%]	viability at 24 h [12] [%]
16 (≈ 28.5 µg/mL)	4 (≈ 7.14 µg/mL)	8 (≈ 14.3 µg/mL)	4 (≈ 7.14 µg/mL)	2 (≈ 3.57 µg/mL)	16 (≈ 28.5 µg/mL)	–	–	–	–	–	CC(C)C[C@H](NC(=O)[C@H](CCCNC(=N)N)NC(=O)[C@H](Cc1c[nH]c2ccccc12)NC(=O)[C@H](CCCNC(=N)N)NC(=O)[C@@H](NC(=O)[C@H](CCCCN)NC(=O)[C@H](Cc1c[nH]c2ccccc12)NC(=O)[C@H](CCCNC(=N)N)NC(=O)[C@H](CC(C)C)NC(=O)[C@H](Cc1c[nH]c2ccccc12)NC(=O)[C@@H](N)CCCNC(=N)N)[C@@H](C)O)C(=O)N[C@@H](CCCCN)C(N)=O (H-RWLRWKTRWRLK-NH2)	> 128	40.3	≥ 70	–
16 (≈ 28.1 µg/mL)	16 (≈ 28.1 µg/mL)	32 (≈ 56.1 µg/mL)	4 (≈ 7.02 µg/mL)	16 (≈ 28.1 µg/mL)	16 (≈ 28.1 µg/mL)	–	–	–	–	–	CC(C)C[C@H](NC(=O)[C@H](CCCNC(=N)N)NC(=O)[C@H](Cc1c[nH]c2ccccc12)NC(=O)[C@H](CCCNC(=N)N)NC(=O)[C@@H](NC(=O)[C@H](CCCCN)NC(=O)[C@H](Cc1c[nH]c2ccccc12)NC(=O)[C@H](CCCNC(=N)N)NC(=O)[C@H](CC(C)C)NC(=O)[C@H](CCCNC(=N)N)NC(=O)[C@@H](N)CCCNC(=N)N)[C@@H](C)O)C(=O)N[C@@H](CCCCN)C(N)=O (H-RRLRWKTRWRLK-NH2)	> 128	18	≥ 70	–
32 (≈ 55.2 µg/mL)	64 (≈ 110 µg/mL)	64 (≈ 110 µg/mL)	16 (≈ 27.6 µg/mL)	16 (≈ 27.6 µg/mL)	16 (≈ 27.6 µg/mL)	–	–	–	–	–	CC(C)C[C@H](NC(=O)[C@H](CCCNC(=N)N)NC(=O)[C@H](CCCCN)NC(=O)[C@H](CCCNC(=N)N)NC(=O)[C@@H](NC(=O)[C@H](Cc1c[nH]c2ccccc12)NC(=O)[C@H](CCCCN)NC(=O)[C@H](CCCNC(=N)N)NC(=O)[C@H](CC(C)C)NC(=O)[C@H](Cc1c[nH]c2ccccc12)NC(=O)[C@@H](N)CCCNC(=N)N)[C@@H](C)O)C(=O)N[C@@H](CCCCN)C(N)=O (H-RWLRKWTRKRLK-NH2)	> 128	8.98	≥ 70	–
8 (≈ 14.5 µg/mL)	4 (≈ 7.25 µg/mL)	8 (≈ 14.5 µg/mL)	4 (≈ 7.25 µg/mL)	4 (≈ 7.25 µg/mL)	8 (≈ 14.5 µg/mL)	–	–	–	–	–	CC(C)C[C@H](NC(=O)[C@H](CCCNC(=N)N)NC(=O)[C@H](Cc1c[nH]c2ccccc12)NC(=O)[C@H](CCCNC(=N)N)NC(=O)[C@@H](NC(=O)[C@H](Cc1c[nH]c2ccccc12)NC(=O)[C@H](Cc1c[nH]c2ccccc12)NC(=O)[C@H](CCCNC(=N)N)NC(=O)[C@H](CC(C)C)NC(=O)[C@H](CCCNC(=N)N)NC(=O)[C@@H](N)CCCNC(=N)N)[C@@H](C)O)C(=O)N[C@@H](CCCCN)C(N)=O (H-RRLRWWTRWRLK-NH2)	> 128	45.2	≥ 70	–
64 (≈ 97.5 µg/mL)	16 (≈ 24.4 µg/mL)	16 (≈ 24.4 µg/mL)	4 (≈ 6.09 µg/mL)	4 (≈ 6.09 µg/mL)	32 (≈ 48.7 µg/mL)	–	–	–	–	–	CC(C)C[C@H](NC(=O)[C@H](CCCNC(=N)N)NC(=O)[C@@H](NC(=O)[C@H](CCCNC(=N)N)NC(=O)[C@@H](NC(=O)[C@H](CCCCN)NC(=O)[C@@H](NC(=O)[C@H](CCCNC(=N)N)NC(=O)[C@H](CC(C)C)NC(=O)[C@H](CCCNC(=N)N)NC(=O)[C@@H](N)C(C)C)C(C)C)[C@@H](C)O)C(C)C)C(=O)N[C@@H](CCCCN)C(N)=O (H-VRLRVKTRVRLK-NH2)	> 128	18	≥ 70	–
2 (≈ 3.62 µg/mL)	1 (≈ 1.81 µg/mL)	4 (≈ 7.24 µg/mL)	2 (≈ 3.62 µg/mL)	4 (≈ 7.24 µg/mL)	2 (≈ 3.62 µg/mL)	2 (≈ 3.62 µg/mL)	2 (≈ 3.62 µg/mL)	2 (≈ 3.62 µg/mL)	4 (≈ 7.24 µg/mL)	1 (≈ 1.81 µg/mL)	CC(C)[C@H](NC(=O)[C@H](CCCNC(=N)N)NC(=O)[C@H](Cc1c[nH]c2ccccc12)NC(=O)[C@H](CCCNC(=N)N)NC(=O)[C@@H](NC(=O)[C@H](CCCNC(=N)N)NC(=O)[C@H](Cc1c[nH]c2ccccc12)NC(=O)[C@H](CCCNC(=N)N)NC(=O)[C@@H](NC(=O)[C@H](CCCNC(=N)N)NC(=O)[C@@H](N)Cc1c[nH]c2ccccc12)C(C)C)C(C)C)C(=O)N[C@@H](CCCNC(=N)N)C(N)=O (H-WRVRWRVRWRVR-NH2)	> 128	114	–	> 90
32 (≈ 50.1 µg/mL)	32 (≈ 50.1 µg/mL)	16 (≈ 25 µg/mL)	4 (≈ 6.26 µg/mL)	4 (≈ 6.26 µg/mL)	64 (≈ 100 µg/mL)	–	–	–	–	–	CC(C)C[C@H](NC(=O)[C@H](CCCNC(=N)N)NC(=O)[C@H](CC(C)C)NC(=O)[C@H](CCCNC(=N)N)NC(=O)[C@@H](NC(=O)[C@H](CCCCN)NC(=O)[C@H](CC(C)C)NC(=O)[C@H](CCCNC(=N)N)NC(=O)[C@H](CC(C)C)NC(=O)[C@H](CCCNC(=N)N)NC(=O)[C@@H](N)CC(C)C)[C@@H](C)O)C(=O)N[C@@H](CCCCN)C(N)=O (H-LRLRLKTRLRLK-NH2)	> 128	16	≥ 70	–
> 128	64 (≈ 110 µg/mL)	64 (≈ 110 µg/mL)	32 (≈ 55.2 µg/mL)	16 (≈ 27.6 µg/mL)	64 (≈ 110 µg/mL)	–	–	–	–	–	CC(C)C[C@H](NC(=O)[C@H](CCCNC(=N)N)NC(=O)[C@H](CCCCN)NC(=O)[C@H](Cc1c[nH]c2ccccc12)NC(=O)[C@@H](NC(=O)[C@H](CCCCN)NC(=O)[C@H](CCCCN)NC(=O)[C@H](CCCNC(=N)N)NC(=O)[C@H](CC(C)C)NC(=O)[C@H](CCCNC(=N)N)NC(=O)[C@@H](N)CCCNC(=N)N)[C@@H](C)O)C(=O)N[C@@H](Cc1c[nH]c2ccccc12)C(N)=O (H-RRLRKKTWKRLW-NH2)	> 128	4.49	≥ 70	–
4 (≈ 7.02 µg/mL)	2 (≈ 3.51 µg/mL)	4 (≈ 7.02 µg/mL)	2 (≈ 3.51 µg/mL)	4 (≈ 7.02 µg/mL)	4 (≈ 7.02 µg/mL)	4 (≈ 7.02 µg/mL)	8 (≈ 14 µg/mL)	8 (≈ 14 µg/mL)	32 (≈ 56.2 µg/mL)	4 (≈ 7.02 µg/mL)	CC(C)[C@H](NC(=O)[C@H](CCCNC(=N)N)NC(=O)[C@H](Cc1c[nH]c2ccccc12)NC(=O)[C@H](CCCNC(=N)N)NC(=O)[C@@H](NC(=O)[C@H](CCCCN)NC(=O)[C@H](Cc1c[nH]c2ccccc12)NC(=O)[C@H](CCCNC(=N)N)NC(=O)[C@@H](NC(=O)[C@H](CCCNC(=N)N)NC(=O)[C@@H](N)Cc1c[nH]c2ccccc12)C(C)C)[C@@H](C)O)C(=O)N[C@@H](CCCCN)C(N)=O (H-WRVRWKTRWRVK-NH2)	> 128	80.8	–	> 90
2 (≈ 3.37 µg/mL)	2 (≈ 3.37 µg/mL)	2 (≈ 3.37 µg/mL)	2 (≈ 3.37 µg/mL)	2 (≈ 3.37 µg/mL)	2 (≈ 3.37 µg/mL)	2 (≈ 3.37 µg/mL)	1 (≈ 1.68 µg/mL)	2 (≈ 3.37 µg/mL)	4 (≈ 6.74 µg/mL)	2 (≈ 3.37 µg/mL)	CC[C@H](C)[C@H](NC(=O)[C@H](CCCCN)NC(=O)[C@H](Cc1c[nH]c2ccccc12)NC(=O)[C@H](CCCCN)NC(=O)[C@@H](NC(=O)[C@H](CCCCN)NC(=O)[C@H](Cc1c[nH]c2ccccc12)NC(=O)[C@H](CCCCN)NC(=O)[C@@H](NC(=O)[C@H](CCCCN)NC(=O)[C@@H](N)Cc1c[nH]c2ccccc12)[C@@H](C)CC)[C@@H](C)CC)C(=O)N[C@@H](CCCCN)C(N)=O (H-WKIKWKIKWKIK-NH2)	64	32	–	> 90
2 (≈ 3.7 µg/mL)	2 (≈ 3.7 µg/mL)	2 (≈ 3.7 µg/mL)	4 (≈ 7.41 µg/mL)	4 (≈ 7.41 µg/mL)	2 (≈ 3.7 µg/mL)	2 (≈ 3.7 µg/mL)	2 (≈ 3.7 µg/mL)	4 (≈ 7.41 µg/mL)	8 (≈ 14.8 µg/mL)	2 (≈ 3.7 µg/mL)	C[C@@H](O)[C@H](NC(=O)[C@H](CCCCN)NC(=O)[C@H](Cc1c[nH]c2ccccc12)NC(=O)[C@H](CCCNC(=N)N)NC(=O)[C@H](Cc1ccccc1)NC(=O)[C@H](CCCNC(=N)N)NC(=O)[C@@H](N)Cc1c[nH]c2ccccc12)C(=O)N[C@@H](CCCNC(=N)N)C(=O)N[C@@H](Cc1c[nH]c2ccccc12)C(=O)N[C@@H](CCCNC(=N)N)C(=O)N[C@@H](Cc1ccccc1)C(=O)N[C@@H](CCCCN)C(N)=O (H-WRFRWKTRWRFK-NH2)	> 128	102	–	> 90
2 (≈ 3.37 µg/mL)	2 (≈ 3.37 µg/mL)	2 (≈ 3.37 µg/mL)	4 (≈ 6.74 µg/mL)	4 (≈ 6.74 µg/mL)	2 (≈ 3.37 µg/mL)	2 (≈ 3.37 µg/mL)	2 (≈ 3.37 µg/mL)	4 (≈ 6.74 µg/mL)	4 (≈ 6.74 µg/mL)	2 (≈ 3.37 µg/mL)	CC(C)C[C@H](NC(=O)[C@H](CCCCN)NC(=O)[C@H](Cc1c[nH]c2ccccc12)NC(=O)[C@H](CCCCN)NC(=O)[C@H](CC(C)C)NC(=O)[C@H](CCCCN)NC(=O)[C@H](Cc1c[nH]c2ccccc12)NC(=O)[C@H](CCCCN)NC(=O)[C@H](CC(C)C)NC(=O)[C@H](CCCCN)NC(=O)[C@@H](N)Cc1c[nH]c2ccccc12)C(=O)N[C@@H](CCCCN)C(N)=O (H-WKLKWKLKWKLK-NH2)	128	50.8	–	> 90
